Data on 22 molecules can be found in patent US10004738B2, “Combination treatment comprising administration of 2-amino-3,5,5-trifluoro-3,4,5,6-tetrahydropyridines” (H. Lundbeck A/S, priority 2015, dated 2018).

Where a name gives a salt, the structure may show the parent alone. Read-outs that look alike come from different tables or passages of the source.

For data set [1], the target named is BACE1 enzyme (Homo sapiens (Human), UniProt P56817). Put plainly: BACE1 efficacy assay (FRET-based, commercial BACE1 kit). The format is biochemical. Particulars: test compound 10 μM, 3 nM enzyme, 250 nM substrate. On the procedure: The efficacy assay was performed as a FRET-based assay using a commercially available BACE1 kit (Life Technologies, P2985). 2 μl test compound at 10 μM (final concentration) and 15 μl BACE1 enzyme from the kit (final concentration 3 nM) were preincubated for 15 minutes at room temperature before addition of 15 μl of substrate from the kit (250 nM final concentration) and incubated for additional 90 minutes at room temperature. The assay plate was subsequently read in a Pherastar (Ex540/Em590). […] The efficacy of the test compounds was evaluated at 10 μM (final concentration) and defined as the percent inhibition of the enzyme activity using the equation % inhibition=100%−normalized enzyme activity in percent.

A short description of data set [2]: Brain and plasma exposure in rats after oral dosing (DMPK analysis). Particulars: male, Sprague Dawley, rat, 3 hours post dose. The format is in vivo. On the procedure: Young adult Male Sprague Dawley rats of approximately 250 g weight were purchased from Charles River and received 0-30 mg/kg of vehicle (10% HP betaCD+1M MeSO4, pH 2.5) or test compounds (dissolved in vehicle) only by oral gavage (p.o). The compounds are dosed at a volume of 5 ml/kg. Cohorts of 5-10 animals were established for each treatment condition.
At T=180 minutes after initial dosing the animals were stunned and decapitated with a guillotine. Trunk-blood was sampled in EDTA coated tubes after decapitation of the animal. The blood was centrifuged at 2200G at 4° C. for 15 minutes and the plasma was collected and frozen at −80° C. The blood was aliquoted for Aβ ELISA and DMPK analysis. Immediately following sacrifice, the brain was extracted and split into 2 halves. The right hemibrains were snap frozen on dry ice and stored at −80° C. The left half was dissected; with the front forebrain taken for Aβ ELISA and the remainder used for DMPK analysis. These samples were also snap frozen on dry ice and stored at −80° C. until use for analysis.
Compounds 1, 5, 17, 18, and 24 were administered at doses of 10 or 30 mg/kg p.o. and brain and plasma samples were collected at 3 hours post dose and the following exposures and reductions in Aβ40 levels were measured as described above.

Where [3] appears, read: 10 mg/kg p.o., brain, read-out: Exp, brain.
Setting [4] is: 10 mg/kg p.o., plasma, read-out: Exp, plasma.
The mark [5] stands for this setting: 30 mg/kg p.o., brain, read-out: Exp, brain.
Setting [6] is: 30 mg/kg p.o., plasma, read-out: Exp, plasma.

BACE1 enzyme, sequence (P56817 46-501): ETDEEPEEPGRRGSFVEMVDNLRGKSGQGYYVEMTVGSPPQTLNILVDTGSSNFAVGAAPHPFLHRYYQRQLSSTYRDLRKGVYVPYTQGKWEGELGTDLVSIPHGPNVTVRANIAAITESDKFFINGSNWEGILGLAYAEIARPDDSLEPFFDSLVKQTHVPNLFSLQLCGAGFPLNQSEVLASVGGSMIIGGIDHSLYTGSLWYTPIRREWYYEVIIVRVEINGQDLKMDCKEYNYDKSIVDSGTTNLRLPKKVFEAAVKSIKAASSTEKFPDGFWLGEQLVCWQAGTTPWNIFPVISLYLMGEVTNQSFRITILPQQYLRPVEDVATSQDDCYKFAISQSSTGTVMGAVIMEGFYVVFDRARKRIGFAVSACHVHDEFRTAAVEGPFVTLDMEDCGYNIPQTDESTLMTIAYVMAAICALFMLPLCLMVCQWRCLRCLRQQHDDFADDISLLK

Regarding `Cc1cc(C#N)cnc1C(=O)Nc1ccc(F)c([C@@]2(C)N=C(N)[C@@](C)(F)CC2(F)F)c1` [Compound 18, N-(3-((2R,5S)-6-amino-3,3,5-trifluoro-2,5-dimethyl-2,3,4,5-tetrahydropyridin-2-yl)-4-fluorophenyl)-5-cyano-3-methylpicolinamide], in data set [1], the inhibition at 10 µM was 102%. The concentration at 3 h was found to be 412 ng/g in data set [2] (setting [3]), 778 ng/g in data set [2] (setting [4]), 1610 ng/g in data set [2] (setting [5]) and 3000 ng/g in data set [2] (setting [6]).
For the molecule `COc1ccc(C(=O)Nc2ccc(F)c([C@@]3(C)N=C(N)[C@@](C)(F)CC3(F)F)c2)nc1` [Compound 17, N-(3-((2R,5S)-6-amino-3,3,5-trifluoro-2,5-dimethyl-2,3,4,5-tetrahydropyridin-2-yl)-4-fluorophenyl)-5-methoxypicolinamide], the inhibition at 10 µM in data set [1] was 101%. The concentration at 3 h is 1220 ng/g in data set [2] (setting [5]) and 828 ng/g in data set [2] (setting [6]).
Turning to `C[C@@]1(F)CC(F)(F)[C@@](C)(c2cc(NC(=O)c3cnc(C(F)F)cn3)ccc2F)N=C1N` [Compound 24, N-(3-((2R,5R)-6-amino-3,3,5-trifluoro-2,5-dimethyl-2,3,4,5-tetrahydropyridin-2-yl)-4-fluorophenyl)-5-(difluoromethyl)pyrazine-2-carboxamide], the inhibition at 10 µM in data set [1] was determined as 98%. In addition, the concentration at 3 h came out at 134 ng/g in data set [2] (setting [3]), 96.2 ng/g in data set [2] (setting [4]), 809 ng/g in data set [2] (setting [5]) and 673 ng/g in data set [2] (setting [6]).
As for `C[C@]1(F)CC(F)(F)[C@@](C)(c2cc(NC(=O)c3ccc(F)cn3)ccc2F)N=C1N` [Compound 1, N-(3-((2R,5S)-6-amino-3,3,5-trifluoro-2,5-dimethyl-2,3,4,5-tetrahydropyridin-2-yl)-4-fluorophenyl)-5-fluoropicolinamide], the inhibition at 10 µM in data set [1] amounted to 104%. Moreover, the figures for the concentration at 3 h in data set [2] (setting [5]) and in data set [2] (setting [6]) were 2190 ng/g and 3540 ng/g, respectively.
With `COc1cnc(C(=O)Nc2ccc(F)c([C@@]3(C)N=C(N)[C@@](C)(F)CC3(F)F)c2)cn1` [Compound 5, N-(3-((2R,5S)-6-amino-3,3,5-trifluoro-2,5-dimethyl-2,3,4,5-tetrahydropyridin-2-yl)-4-fluorophenyl)-5-methoxypyrazine-2-carboxamide], the inhibition at 10 µM in data set [1] was 96%. Besides, the concentration at 3 h in data set [2] (setting [3]) is 174 ng/g; in data set [2] (setting [4]), 137 ng/g; in data set [2] (setting [5]) it was 954 ng/g; in data set [2] (setting [6]), 632 ng/g.
`Cc1nc(C(=O)Nc2ccc(F)c([C@@]3(C)N=C(N)[C@@](C)(F)CC3(F)F)c2)c(C)o1` [Compound 47, N-(3-((2R,5S)-6-amino-3,3,5-trifluoro-2,5-dimethyl-2,3,4,5-tetrahydropyridin-2-yl)-4 fluorophenyl)-2,5-dimethyloxazole-4-carboxamide]: the inhibition at 10 µM in data set [1] was found to be 102%.
The same measure, in the same setting: the value for `Cn1cnc(C(=O)Nc2ccc(F)c([C@@]3(C)N=C(N)[C@@](C)(F)CC3(F)F)c2)n1` [Compound 22, N-(3-((2R,5S)-6-amino-3,3,5-trifluoro-2,5-dimethyl-2,3,4,5-tetrahydropyridin-2-yl)-4-fluorophenyl)-1-methyl-1H-1,2,4-triazole-3-carboxamide] was 92%; that for `[2H]C([2H])([2H])Oc1ccc(C(=O)Nc2ccc(F)c([C@@]3(C)N=C(N)[C@@](C)(F)CC3(F)F)c2)nc1` [Compound 48] was 99%.
Same read-out and setting: the value for `C[C@]1(F)CC(F)(F)[C@@](C)(c2cc(NC(=O)c3ccc(OC(F)F)cn3)ccc2F)N=C1N` [Compound 45, N-(3-((2R,5S)-6-amino-3,3,5-trifluoro-2,5-dimethyl-2,3,4,5-tetrahydropyridin-2-yl)-4-fluorophenyl)-5-(difluoromethoxy)picolinamide] was 103%; that for `Cc1csc(C(=O)Nc2ccc(F)c([C@@]3(C)N=C(N)[C@@](C)(F)CC3(F)F)c2)n1` [Compound 10, N-(3-((2R,5S)-6-amino-3,3,5-trifluoro-2,5-dimethyl-2,3,4,5-tetrahydropyridin-2-yl)-4-fluorophenyl)-4-methylthiazole-2-carboxamide] was 102%.
In the case of `Cc1ccc(C(=O)Nc2ccc(F)c([C@@]3(C)N=C(N)[C@](C)(F)CC3(F)F)c2)o1` [Compound 41, N-(3-((2R,5R)-6-amino-3,3,5-trifluoro-2,5-dimethyl-2,3,4,5-tetrahydropyridin-2-yl)-4-fluorophenyl)-5-methylfuran-2-carboxamide], the inhibition at 10 µM in data set [1] came to 93%.
For `C[C@@]1(F)CC(F)(F)[C@@](C)(c2cc(NC(=O)c3ccc(F)cn3)ccc2F)N=C1N` [Compound 2, N-(3-((2R,5R)-6-amino-3,3,5-trifluoro-2,5-dimethyl-2,3,4,5-tetrahydropyridin-2-yl)-4-fluorophenyl)-5-fluoropicolinamide], in data set [1], the inhibition at 10 µM is 100%.
On the same count and under the same terms, the value for `Cn1cc(Br)nc1C(=O)Nc1ccc(F)c([C@@]2(C)N=C(N)[C@](C)(F)CC2(F)F)c1` [Compound 37, N-(3-((2R,5R)-6-amino-3,3,5-trifluoro-2,5-dimethyl-2,3,4,5-tetrahydropyridin-2-yl)-4-fluorophenyl)-4-bromo-1-methyl-1H-imidazole-2-carboxamide] was 104%.
The same measure, in the same setting: the value for `C[C@]1(F)CC(F)(F)[C@@](C)(c2cc(NC(=O)c3ccc(Cl)cn3)ccc2F)N=C1N` [Compound 3, N-(3-((2R,5S)-6-amino-3,3,5-trifluoro-2,5-dimethyl-2,3,4,5-tetrahydropyridin-2-yl)-4-fluorophenyl)-5-chloropicolinamide] was 102%.
As to `C[C@@]1(F)CC(F)(F)[C@@](C)(c2cc(NC(=O)c3ccc(C#N)cn3)ccc2F)N=C1N` [Compound 32, N-(3-((2R,5R)-6-amino-3,3,5-trifluoro-2,5-dimethyl-2,3,4,5-tetrahydropyridin-2-yl)-4-fluorophenyl)-5-cyanopicolinamide], in data set [1], the inhibition at 10 µM amounted to 101%.
On the same count and under the same terms, the value for `C[C@@]1(F)CC(F)(F)[C@@](C)(c2cc(NC(=O)c3coc(C(F)F)n3)ccc2F)N=C1N` [Compound 29, N-(3-((2R,5R)-6-amino-3,3,5-trifluoro-2,5-dimethyl-2,3,4,5-tetrahydropyridin-2-yl)-4-fluorophenyl)-2-(difluoromethyl)oxazole-4-carboxamide] was 101%.
Turning to `COc1cnc(C(=O)Nc2ccc(F)c([C@@]3(C)N=C(N)[C@@](C)(F)CC3(F)F)c2)c(F)c1` [Compound 46, N-(3-((2R,5S)-6-amino-3,3,5-trifluoro-2,5-dimethyl-2,3,4,5-tetrahydropyridin-2-yl)-4-fluorophenyl)-3-fluoro-5-methoxypicolinamide], the inhibition at 10 µM in data set [1] worked out at 101%.
Same read-out and setting: the value for `C[C@@]1(F)CC(F)(F)[C@@](C)(c2cc(NC(=O)c3ccc(C(F)(F)F)cn3)ccc2F)N=C1N` [Compound 28, N-(3-((2R,5R)-6-amino-3,3,5-trifluoro-2,5-dimethyl-2,3,4,5-tetrahydropyridin-2-yl)-4-fluorophenyl)-5-(trifluoromethyl)picolinamide] was 102%; that for `C[C@]1(F)CC(F)(F)[C@@](C)(c2cc(NC(=O)c3nc(CF)co3)ccc2F)N=C1N` [Compound 14, N-(3-((2R,5S)-6-amino-3,3,5-trifluoro-2,5-dimethyl-2,3,4,5-tetrahydropyridin-2-yl)-4-fluorophenyl)-4-(fluoromethyl)oxazole-2-carboxamide] was 102%; that for `COc1cnc(C(=O)Nc2ccc(F)c([C@@]3(C)N=C(N)[C@@](C)(F)CC3(F)F)c2)c(C)n1` [Compound 19, N-(3-((2R,5S)-6-amino-3,3,5-trifluoro-2,5-dimethyl-2,3,4,5-tetrahydropyridin-2-yl)-4-fluorophenyl)-5-methoxy-3-methylpyrazine-2-carboxamide] was 98%.
As for `Cc1ncc(C(=O)Nc2ccc(F)c([C@@]3(C)N=C(N)[C@](C)(F)CC3(F)F)c2)o1` [Compound 42, N-(3-((2R,5R)-6-amino-3,3,5-trifluoro-2,5-dimethyl-2,3,4,5-tetrahydropyridin-2-yl)-4-fluorophenyl)-2-methyloxazole-5-carboxamide trifluoroacetic acid salt], the inhibition at 10 µM in data set [1] was 84%.
Still for that read-out and setting: under `Cc1nnc(C(=O)Nc2ccc(F)c([C@@]3(C)N=C(N)[C@@](C)(F)CC3(F)F)c2)o1` [Compound 20, N-(3-((2R,5S)-6-amino-3,3,5-trifluoro-2,5-dimethyl-2,3,4,5-tetrahydropyridin-2-yl)-4-fluorophenyl)-5-methyl-1,3,4-oxadiazole-2-carboxamide] stands 88%.

By inhibition is commonly meant the change of the read-out against control, counted positive when it falls.
